Assay results from ChEMBL document CHEMBL4507273 (2021).
pKi: −log10 of the molar value.

What was measured:
[1] = target: Calcium/calmodulin-dependent protein kinase type 1B (Homo sapiens) (UniProt Q6P2M8); conditions: Compound concentration 1000.0 nM
[2] = target: T1, Testis-specific serine/threonine-protein kinase 1 (Homo sapiens) (UniProt Q9BXA7); conditions: Compound concentration 1000.0 nM
T1 sequence (whole entry): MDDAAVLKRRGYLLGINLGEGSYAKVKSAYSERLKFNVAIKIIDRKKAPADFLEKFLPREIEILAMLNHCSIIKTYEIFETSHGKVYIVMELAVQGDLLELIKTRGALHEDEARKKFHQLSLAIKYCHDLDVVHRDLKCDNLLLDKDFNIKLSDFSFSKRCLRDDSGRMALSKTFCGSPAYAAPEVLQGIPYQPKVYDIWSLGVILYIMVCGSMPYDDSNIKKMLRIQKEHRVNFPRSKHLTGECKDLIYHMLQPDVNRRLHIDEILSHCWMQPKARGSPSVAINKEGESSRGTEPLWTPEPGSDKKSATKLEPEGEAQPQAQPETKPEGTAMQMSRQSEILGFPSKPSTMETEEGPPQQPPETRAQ

[3] = test system: Mast/stem cell growth factor receptor Kit (Homo sapiens), P10721 [V559D]; conditions: Compound concentration 1000.0 nM
Mast/stem cell growth factor receptor Kit (Homo sapiens), P10721 [V559D], sequence (P10721 whole entry V559D): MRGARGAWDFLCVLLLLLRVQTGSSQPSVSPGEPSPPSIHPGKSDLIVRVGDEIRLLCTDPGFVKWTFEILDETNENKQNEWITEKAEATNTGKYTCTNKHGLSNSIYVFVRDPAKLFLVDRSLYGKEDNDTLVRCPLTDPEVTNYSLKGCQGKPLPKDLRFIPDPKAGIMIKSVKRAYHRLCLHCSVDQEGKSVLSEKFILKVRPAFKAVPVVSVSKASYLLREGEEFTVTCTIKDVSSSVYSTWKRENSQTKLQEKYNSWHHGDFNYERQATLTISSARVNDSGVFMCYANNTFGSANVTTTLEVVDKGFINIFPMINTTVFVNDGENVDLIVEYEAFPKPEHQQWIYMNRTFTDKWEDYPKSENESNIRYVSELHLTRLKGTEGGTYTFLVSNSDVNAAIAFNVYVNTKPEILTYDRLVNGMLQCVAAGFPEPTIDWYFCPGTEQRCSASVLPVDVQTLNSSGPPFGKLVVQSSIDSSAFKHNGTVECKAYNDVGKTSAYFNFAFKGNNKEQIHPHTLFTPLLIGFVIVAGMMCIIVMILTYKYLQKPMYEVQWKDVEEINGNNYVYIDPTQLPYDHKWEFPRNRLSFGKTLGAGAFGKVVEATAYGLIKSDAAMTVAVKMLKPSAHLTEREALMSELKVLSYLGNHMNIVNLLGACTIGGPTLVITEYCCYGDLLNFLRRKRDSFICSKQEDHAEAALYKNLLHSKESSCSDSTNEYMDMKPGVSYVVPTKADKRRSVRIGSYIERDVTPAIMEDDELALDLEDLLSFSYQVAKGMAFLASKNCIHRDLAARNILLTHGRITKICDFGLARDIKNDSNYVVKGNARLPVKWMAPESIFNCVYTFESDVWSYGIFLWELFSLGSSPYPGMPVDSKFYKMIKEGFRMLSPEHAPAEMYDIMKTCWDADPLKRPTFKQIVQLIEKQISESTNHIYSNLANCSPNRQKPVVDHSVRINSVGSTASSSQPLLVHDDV

[4] = target: Serine/threonine-protein kinase pim-1 (Homo sapiens) (UniProt P11309); conditions: Compound concentration 1000.0 nM
[5] = target: Tyrosine-protein kinase Mer (Homo sapiens) (UniProt Q12866); conditions: Compound concentration 1000.0 nM
[6] = target: Serine/threonine-protein kinase DCLK2 (Homo sapiens) (UniProt Q8N568); conditions: Compound concentration 1000.0 nM
[7] = target: Ephrin type-A receptor 7 (Homo sapiens) (UniProt Q15375); conditions: Compound concentration 1000.0 nM
[8] = target: Serine/threonine-protein kinase Nek2 (Homo sapiens) (UniProt P51955); conditions: Compound concentration 1000.0 nM
[9] = test system: Tyrosine-protein kinase ABL1 (Homo sapiens), P00519 [M351T]; conditions: Compound concentration 1000.0 nM
[10] = target: Mitotic checkpoint serine/threonine-protein kinase BUB1 (Homo sapiens) (UniProt O43683); conditions: Compound concentration 1000.0 nM
[11] = target: NUAK family SNF1-like kinase 2 (Homo sapiens) (UniProt Q9H093); conditions: Compound concentration 1000.0 nM
[12] = target: Tyrosine-protein kinase receptor Tie-1 (Homo sapiens) (UniProt P35590); conditions: Compound concentration 1000.0 nM
[13] = target: Receptor tyrosine-protein kinase erbB-2 (Homo sapiens) (UniProt P04626); conditions: Compound concentration 1000.0 nM
[14] = target: Phosphatidylinositol 4-phosphate 5-kinase type-1 alpha (Homo sapiens) (UniProt Q99755); conditions: Compound concentration 1000.0 nM
Phosphatidylinositol 4-phosphate 5-kinase type-1 alpha (Homo sapiens), sequence (Q99755 whole entry): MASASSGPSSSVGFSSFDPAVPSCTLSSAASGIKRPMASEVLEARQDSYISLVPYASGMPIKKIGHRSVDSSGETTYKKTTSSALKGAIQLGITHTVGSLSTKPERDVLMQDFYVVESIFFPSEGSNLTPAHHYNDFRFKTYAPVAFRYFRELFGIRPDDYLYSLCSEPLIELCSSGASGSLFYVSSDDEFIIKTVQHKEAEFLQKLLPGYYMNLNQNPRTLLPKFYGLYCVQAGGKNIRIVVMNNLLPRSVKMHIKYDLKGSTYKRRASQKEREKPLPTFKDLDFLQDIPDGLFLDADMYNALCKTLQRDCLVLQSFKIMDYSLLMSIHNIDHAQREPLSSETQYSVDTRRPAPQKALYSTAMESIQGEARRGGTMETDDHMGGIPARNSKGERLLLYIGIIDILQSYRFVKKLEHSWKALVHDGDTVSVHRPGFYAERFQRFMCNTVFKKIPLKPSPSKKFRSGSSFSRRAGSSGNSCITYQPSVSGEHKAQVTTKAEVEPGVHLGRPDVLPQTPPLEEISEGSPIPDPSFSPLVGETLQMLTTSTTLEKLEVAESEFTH

[15] = target: Serine/threonine-protein kinase PAK 6 (Homo sapiens) (UniProt Q9NQU5); conditions: Compound concentration 1000.0 nM
[16] = target: Casein kinase I isoform gamma-1 (Homo sapiens) (UniProt Q9HCP0); conditions: Compound concentration 1000.0 nM
[17] = target: Serine/threonine-protein kinase LATS1 (Homo sapiens) (UniProt O95835); conditions: Compound concentration 1000.0 nM
Serine/threonine-protein kinase LATS1 (Homo sapiens), sequence (O95835 whole entry): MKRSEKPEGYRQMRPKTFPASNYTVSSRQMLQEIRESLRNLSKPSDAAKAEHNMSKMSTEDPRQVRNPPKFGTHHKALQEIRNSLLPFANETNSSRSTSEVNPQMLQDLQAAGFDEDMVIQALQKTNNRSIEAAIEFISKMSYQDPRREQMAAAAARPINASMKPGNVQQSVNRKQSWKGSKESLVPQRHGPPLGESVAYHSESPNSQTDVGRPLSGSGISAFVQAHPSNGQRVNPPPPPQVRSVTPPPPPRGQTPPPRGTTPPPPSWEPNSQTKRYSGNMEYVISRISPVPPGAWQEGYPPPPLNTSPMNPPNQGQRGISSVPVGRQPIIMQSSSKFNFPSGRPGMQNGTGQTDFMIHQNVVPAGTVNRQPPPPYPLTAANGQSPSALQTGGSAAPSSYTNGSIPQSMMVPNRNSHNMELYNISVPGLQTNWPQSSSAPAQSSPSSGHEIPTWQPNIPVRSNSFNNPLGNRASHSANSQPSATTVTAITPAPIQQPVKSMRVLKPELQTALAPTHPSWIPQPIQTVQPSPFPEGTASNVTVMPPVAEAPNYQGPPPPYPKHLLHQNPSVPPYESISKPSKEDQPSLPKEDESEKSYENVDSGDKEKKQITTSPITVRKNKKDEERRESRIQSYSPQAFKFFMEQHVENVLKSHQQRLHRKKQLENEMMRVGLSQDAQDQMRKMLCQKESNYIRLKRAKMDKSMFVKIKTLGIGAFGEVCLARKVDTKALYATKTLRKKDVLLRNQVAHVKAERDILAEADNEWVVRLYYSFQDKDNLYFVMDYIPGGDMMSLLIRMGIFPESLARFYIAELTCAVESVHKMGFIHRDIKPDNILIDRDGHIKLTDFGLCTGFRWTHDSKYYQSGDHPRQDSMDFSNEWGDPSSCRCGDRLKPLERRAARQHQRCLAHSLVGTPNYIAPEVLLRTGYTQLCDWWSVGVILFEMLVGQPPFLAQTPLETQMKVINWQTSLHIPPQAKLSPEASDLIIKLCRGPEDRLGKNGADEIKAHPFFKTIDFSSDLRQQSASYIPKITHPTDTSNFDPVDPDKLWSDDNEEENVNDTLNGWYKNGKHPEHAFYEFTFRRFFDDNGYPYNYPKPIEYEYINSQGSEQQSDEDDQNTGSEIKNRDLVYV

[18] = test system: Tyrosine-protein kinase ABL1 (Homo sapiens), P00519 [H396P]; conditions: Compound concentration 1000.0 nM
[19] = target: Serine/threonine-protein kinase PLK3 (Homo sapiens) (UniProt Q9H4B4); conditions: Compound concentration 1000.0 nM
[20] = target: LIM domain kinase 1 (Homo sapiens) (UniProt P53667); conditions: Compound concentration 1000.0 nM
[21] = target: Serine/threonine-protein kinase TAO3 (Homo sapiens) (UniProt Q9H2K8); conditions: Compound concentration 1000.0 nM
[22] = target: Beta-2 adrenergic receptor (Homo sapiens) (UniProt P07550); conditions: Compound concentration 10.0 uM
[23] = target: Histamine H4 receptor (Homo sapiens, UniProt Q9H3N8); conditions: Compound concentration 10.0 uM
[24] = target: SRSF protein kinase 1 (Homo sapiens) (UniProt Q96SB4); conditions: Compound concentration 1000.0 nM
[25] = target: 5-hydroxytryptamine receptor 7 (Homo sapiens, UniProt P34969); conditions: Compound concentration 10.0 uM
[26] = target: D(3) dopamine receptor (Homo sapiens, UniProt P35462); assay: GPCRScan assay: inhibition of D3; set-up: radioligand conc. used [nm] 0.5 – 1.8, parental cells HEKT
[27] = target: RAF proto-oncogene serine/threonine-protein kinase (Homo sapiens) (UniProt P04049); conditions: Compound concentration 1000.0 nM
[28] = test system: Mast/stem cell growth factor receptor Kit (Homo sapiens), P10721 [D816V]; conditions: Compound concentration 1000.0 nM
Mast/stem cell growth factor receptor Kit (Homo sapiens), P10721 [D816V], sequence (P10721 whole entry D816V): as the sequence (P10721 whole entry V559D) above, with D559V, D816V counted along it

[29] = target: Membrane-associated tyrosine- and threonine-specific cdc2-inhibitory kinase (Homo sapiens) (UniProt Q99640); conditions: Compound concentration 1000.0 nM
[30] = target: 5-hydroxytryptamine receptor 1B (Homo sapiens, UniProt P28222); assay: GPCRScan assay: inhibition of 5-HT1B; set-up: radioligand conc. used [nm] 0.6 – 1.5, parental cells stable HEK; conditions: for pKi: read-out: Ki
5-hydroxytryptamine receptor 1B, sequence (P28222 whole entry): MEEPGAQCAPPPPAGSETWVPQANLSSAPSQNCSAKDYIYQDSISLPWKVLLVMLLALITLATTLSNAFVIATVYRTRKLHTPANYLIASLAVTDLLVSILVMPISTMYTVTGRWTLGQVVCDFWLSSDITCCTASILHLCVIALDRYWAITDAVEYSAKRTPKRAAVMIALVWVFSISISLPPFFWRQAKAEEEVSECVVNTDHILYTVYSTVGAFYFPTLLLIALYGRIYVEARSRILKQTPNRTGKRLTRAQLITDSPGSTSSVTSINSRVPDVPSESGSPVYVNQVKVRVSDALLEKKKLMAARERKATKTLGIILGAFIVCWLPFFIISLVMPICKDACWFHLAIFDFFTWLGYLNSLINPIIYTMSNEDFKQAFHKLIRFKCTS

[31] = target: Aurora kinase B (Homo sapiens) (UniProt Q96GD4); conditions: Compound concentration 1000.0 nM
[32] = target: Serine/threonine-protein kinase Nek10 (Homo sapiens) (UniProt Q6ZWH5); conditions: Compound concentration 1000.0 nM
[33] = target: Rhodopsin kinase GRK1 (Homo sapiens) (UniProt Q15835); conditions: Compound concentration 1000.0 nM
[34] = target: Serine/threonine-protein kinase Nek1 (Homo sapiens) (UniProt Q96PY6); conditions: Compound concentration 1000.0 nM
[35] = target: Bone morphogenetic protein receptor type-1B (Homo sapiens) (UniProt O00238); conditions: Compound concentration 1000.0 nM
Bone morphogenetic protein receptor type-1B (Homo sapiens), sequence (O00238 whole entry): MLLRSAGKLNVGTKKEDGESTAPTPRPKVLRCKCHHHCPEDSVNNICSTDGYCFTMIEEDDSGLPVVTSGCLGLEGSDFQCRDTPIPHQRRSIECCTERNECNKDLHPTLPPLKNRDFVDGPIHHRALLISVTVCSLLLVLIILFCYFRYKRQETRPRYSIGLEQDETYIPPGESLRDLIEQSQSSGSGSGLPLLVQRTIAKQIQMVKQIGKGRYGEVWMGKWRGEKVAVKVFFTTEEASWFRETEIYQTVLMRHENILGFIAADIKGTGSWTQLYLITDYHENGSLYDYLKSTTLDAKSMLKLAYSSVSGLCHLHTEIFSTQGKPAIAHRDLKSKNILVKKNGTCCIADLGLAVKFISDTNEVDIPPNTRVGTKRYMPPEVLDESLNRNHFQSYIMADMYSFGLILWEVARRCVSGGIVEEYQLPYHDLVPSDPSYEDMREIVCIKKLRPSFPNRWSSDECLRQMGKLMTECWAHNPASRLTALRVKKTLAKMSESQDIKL

[36] = target: Serine/threonine-protein kinase 17B (Homo sapiens) (UniProt O94768); conditions: Compound concentration 1000.0 nM
[37] = target: MAP kinase-interacting serine/threonine-protein kinase 1 (Homo sapiens) (UniProt Q9BUB5); conditions: Compound concentration 1000.0 nM
[38] = target: Angiopoietin-1 receptor (Homo sapiens) (UniProt Q02763); conditions: Compound concentration 1000.0 nM
[39] = test system: Epidermal growth factor receptor (Homo sapiens), P00533 [UNDEFINED MUTATION]; conditions: Compound concentration 1000.0 nM
Epidermal growth factor receptor (Homo sapiens), P00533 [UNDEFINED MUTATION], sequence (P00533 whole entry, looked up, change not shown): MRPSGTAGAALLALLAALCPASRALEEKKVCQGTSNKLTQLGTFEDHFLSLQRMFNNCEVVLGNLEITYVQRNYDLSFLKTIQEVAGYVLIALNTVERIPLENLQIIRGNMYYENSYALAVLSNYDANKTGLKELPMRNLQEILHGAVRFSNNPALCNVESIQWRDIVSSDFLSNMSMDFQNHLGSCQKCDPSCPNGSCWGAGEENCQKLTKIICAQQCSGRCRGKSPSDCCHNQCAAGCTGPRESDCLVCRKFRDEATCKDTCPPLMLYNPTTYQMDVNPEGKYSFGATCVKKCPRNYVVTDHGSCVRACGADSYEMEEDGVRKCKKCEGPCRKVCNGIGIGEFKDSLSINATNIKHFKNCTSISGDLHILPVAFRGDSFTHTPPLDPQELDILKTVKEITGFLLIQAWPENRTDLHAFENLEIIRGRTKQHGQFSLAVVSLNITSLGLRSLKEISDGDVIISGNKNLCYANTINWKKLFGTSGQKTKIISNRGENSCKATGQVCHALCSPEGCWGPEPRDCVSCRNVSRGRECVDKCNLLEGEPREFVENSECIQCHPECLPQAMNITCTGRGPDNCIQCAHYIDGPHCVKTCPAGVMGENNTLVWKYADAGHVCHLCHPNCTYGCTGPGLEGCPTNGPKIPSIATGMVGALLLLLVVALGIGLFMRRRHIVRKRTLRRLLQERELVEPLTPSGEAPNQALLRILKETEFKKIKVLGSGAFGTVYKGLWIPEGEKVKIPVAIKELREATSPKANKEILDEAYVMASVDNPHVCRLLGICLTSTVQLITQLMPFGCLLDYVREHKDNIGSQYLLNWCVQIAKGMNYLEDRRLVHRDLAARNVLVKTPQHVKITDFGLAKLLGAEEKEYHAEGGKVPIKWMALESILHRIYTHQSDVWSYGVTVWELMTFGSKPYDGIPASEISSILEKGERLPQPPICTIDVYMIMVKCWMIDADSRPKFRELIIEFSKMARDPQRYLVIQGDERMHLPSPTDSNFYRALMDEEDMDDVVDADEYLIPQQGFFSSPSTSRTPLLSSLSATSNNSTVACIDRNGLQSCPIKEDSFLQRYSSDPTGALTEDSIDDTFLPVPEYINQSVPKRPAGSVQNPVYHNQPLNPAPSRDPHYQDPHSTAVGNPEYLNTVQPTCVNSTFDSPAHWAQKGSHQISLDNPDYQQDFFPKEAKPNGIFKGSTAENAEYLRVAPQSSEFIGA

[40] = target: BMP-2-inducible protein kinase (Homo sapiens) (UniProt Q9NSY1); conditions: Compound concentration 1000.0 nM

## CNCc1ccccc1-c1csc([C@@H](C)Nc2nc(C)nc3cc(OC)c(OC)cc23)c1 [BAY-293]
[1]
  residual activity: 95%
[2]
  residual activity: 59%
[3]
  residual activity: 100%
[4]
  residual activity: 97%
[5]
  residual activity: 61%
[6]
  residual activity: 99%
[7]
  residual activity: 100%
[8]
  residual activity: 92%
[9]
  residual activity: 74%
[10]
  residual activity: 100%
[11]
  residual activity: 97%
[12]
  residual activity: 100%
[13]
  residual activity: 84%
[14]
  residual activity: 75%
[15]
  residual activity: 100%
[16]
  residual activity: 88%
[17]
  residual activity: 100%
[18]
  residual activity: 78%
[19]
  residual activity: 91%
[20]
  residual activity: 99%
[21]
  residual activity: 83%
[22]
  inhibition: 12.1%
[23]
  inhibition: 42.1%
[24]
  residual activity: 90%
[25]
  inhibition: 76.2%
[26]
  pKi: 6.03
[27]
  residual activity: 70%
[28]
  residual activity: 81%
[29]
  residual activity: 93%
[30]
  pKi: 5.85
[30]; read-out: pKi (converted)
  Ki: 1.35 µM
[31]
  residual activity: 77%
[32]
  residual activity: 73%
[33]
  residual activity: 99%
[34]
  residual activity: 91%
[35]
  residual activity: 83%
[36]
  residual activity: 92%
[37]
  residual activity: 83%
[38]
  residual activity: 87%
[39]
  residual activity: 63%
[40]
  residual activity: 87%

## CNCc1ccccc1-c1csc([C@H](C)Nc2nc(C)nc3cc(OC)c(OC)cc23)c1 [BAY-294]
[1]
  residual activity: 100%
[2]
  residual activity: 93%
[3]
  residual activity: 100%
[4]
  residual activity: 100%
[5]
  residual activity: 72%
[6]
  residual activity: 100%
[7]
  residual activity: 100%
[8]
  residual activity: 92%
[9]
  residual activity: 85%
[10]
  residual activity: 100%
[11]
  residual activity: 100%
[12]
  residual activity: 100%
[13]
  residual activity: 100%
[14]
  residual activity: 92%
[15]
  residual activity: 100%
[16]
  residual activity: 92%
[17]
  residual activity: 100%
[18]
  residual activity: 89%
[19]
  residual activity: 87%
[20]
  residual activity: 100%
[21]
  residual activity: 75%
[22]
  inhibition: 18.2%
[23]
  inhibition: 67%
[24]
  residual activity: 100%
[25]
  inhibition: 70.7%
[26]
  pKi: 6.06
[27]
  residual activity: 65%
[28]
  residual activity: 100%
[29]
  residual activity: 100%
[30]
  pKi: 5.76
[31]
  residual activity: 99%
[32]
  residual activity: 78%
[33]
  residual activity: 100%
[34]
  residual activity: 100%
[35]
  residual activity: 100%
[36]
  residual activity: 100%
[37]
  residual activity: 91%
[38]
  residual activity: 100%
[39]
  residual activity: 81%
[40]
  residual activity: 79%
